Assays:
Substance-K receptor [1] = molecular target: T1, Substance-K receptor (Mesocricetus auratus, UniProt P51144); experiment: Inhibition constant for displacement of [3H]NKA from Tachykinin receptor 2 found in hamster urinary bladder membrane (HUBM); type: cell membranes
T1 sequence (P51144 whole entry): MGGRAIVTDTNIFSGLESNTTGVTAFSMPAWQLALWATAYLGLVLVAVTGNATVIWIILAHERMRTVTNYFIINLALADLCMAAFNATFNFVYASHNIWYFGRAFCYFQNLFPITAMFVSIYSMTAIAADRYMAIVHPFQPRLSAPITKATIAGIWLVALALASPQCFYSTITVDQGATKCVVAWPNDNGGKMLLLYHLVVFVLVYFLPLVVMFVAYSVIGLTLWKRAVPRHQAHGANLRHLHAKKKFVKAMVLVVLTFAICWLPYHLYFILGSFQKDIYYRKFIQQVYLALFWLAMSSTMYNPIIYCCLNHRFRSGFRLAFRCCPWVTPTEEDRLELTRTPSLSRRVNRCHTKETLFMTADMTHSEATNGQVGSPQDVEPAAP

Substance-K receptor [2] = molecular target: T2, Substance-K receptor (Homo sapiens, UniProt P21452); experiment: Inhibition constant for displacement of [3H]NKA from the cloned human NK2 receptor
T2 sequence (P21452 whole entry): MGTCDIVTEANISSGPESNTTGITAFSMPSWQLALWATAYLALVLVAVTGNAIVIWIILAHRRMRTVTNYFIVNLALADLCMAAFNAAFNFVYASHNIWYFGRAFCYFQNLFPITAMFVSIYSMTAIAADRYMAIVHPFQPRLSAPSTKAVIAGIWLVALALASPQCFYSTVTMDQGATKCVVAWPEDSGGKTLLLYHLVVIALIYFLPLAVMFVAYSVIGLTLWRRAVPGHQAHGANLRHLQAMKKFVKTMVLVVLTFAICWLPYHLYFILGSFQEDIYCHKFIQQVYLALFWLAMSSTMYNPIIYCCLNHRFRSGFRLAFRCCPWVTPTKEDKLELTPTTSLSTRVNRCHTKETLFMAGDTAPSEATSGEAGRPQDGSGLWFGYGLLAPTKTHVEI

Substance-K receptor [3] = molecular target: T2, Substance-K receptor; experiment: Displacement of [3H]NKA from the cloned human Tachykinin receptor 2 which has been expressed in baculovirus infected insect sf21 cells
Cavia porcellus = species on record: Cavia porcellus; experiment: Compound was tested for the inhibition of contraction induced by [b-Ala8-NKA(4-10)] in guinea pig trachea; type: functional
Substance-K receptor [4] = molecular target: T2, Substance-K receptor; experiment: Inhibition constant for displacement of [3H]-NKA from the cloned human NK2 receptor which has been expressed in baculovirus infected insect sf21 cells

SMILES | Ki (Substance-K receptor [1]) [µM] | Ki (Substance-K receptor [3]) [µM] | other results
O=C(O)c1ccc2c(Nc3ccc(Cl)cc3)nc(N3CCOCC3)nc2c1 | 20.3 | – | –
CCCc1nc2nc(N3CCOCC3)nc(Nc3ccc(Cl)cc3)c2[nH]1 | 0.054 | – | Ki (Substance-K receptor [2]): 2.34 µM
CCCNc1nc(Nc2ccc(Cl)cc2)c2[nH]c(C(C)C)nc2n1 | – | 3.49 | –
CC(C)NC(=O)c1ccc2c(Nc3ccc(Cl)cc3)nc(N3CCOCC3)nc2c1 | 58.7 | – | –
CC(C)c1nc2nc(N3CCC(O)CC3)nc(Nc3ccc(C(F)(F)F)cc3)c2[nH]1 | – | 1.77 | Kb (Cavia porcellus): > 100 µM
Clc1ccc(Nc2nc(N3CCOCC3)nc3ccccc23)cc1 | 29.5 | – | –
CC(C)c1nc2nc(N3CCOCC3)nc(Nc3ccc(C(F)(F)F)cc3)c2[nH]1 | – | 2.85 | Kb (Cavia porcellus): > 100 µM
CCc1nc2nc(N3CCOCC3)nc(Nc3ccc(Cl)cc3)c2[nH]1 | 0.52 | – | Ki (Substance-K receptor [2]): 6.94 µM
COC(=O)c1ccc2c(Nc3ccc(Cl)cc3)nc(N3CCOCC3)nc2c1 | 0.82 | – | –

Second part, led by results:

Ki (Substance-K receptor [1]) [µM] | Ki (Substance-K receptor [3]) [µM] | SMILES | other results
0.015 | – | CC(C)N1Cc2c(Nc3ccc(Cl)cc3)nc(N3CCOCC3)nc2C1=O | Ki (Substance-K receptor [2]): 0.55 µM
– | 2.55 | CC(C)c1nc2[nH]c(NCCCN)nc(Nc3ccc(Cl)cc3)c-2n1 | –
– | 5.89 | CC(C)c1nc2[nH]c(N3CCC(=O)CC3)nc(Nc3ccc(Cl)cc3)c-2n1 | –
– | 3.44 | COC1(OC)CCN(c2nc(Nc3ccc(Cl)cc3)c3[nH]c(C(C)C)nc3n2)CC1 | –
– | 2.24 | CC(C)c1nc2nc(N3CCC(O)(c4ccccc4)CC3)nc(Nc3ccc(Cl)cc3)c2[nH]1 | Kb (Cavia porcellus): 100 µM
– | 4.36 | CC(C)c1nc2[nH]c(N3CCC4(CC3)OCCO4)nc(Nc3ccc(Cl)cc3)c-2n1 | –
– | 5.58 | CC(C)c1nc2[nH]c(NCc3ccccc3)nc(Nc3ccc(Cl)cc3)c-2n1 | –
– | 2.1 | CC(C)c1nc2nc(N3CCC(C)(O)CC3)nc(Nc3ccc(Cl)cc3)c2[nH]1 | Kb (Cavia porcellus): 10.7 µM
6.6 | – | Cc1nc2[nH]c(N3CCOCC3)nc(Nc3ccc(Cl)cc3)c-2n1 | Ki (Substance-K receptor [2]): 17.5 µM
0.067 | – | CC(C)c1nc2[nH]c(N3CCOCC3)nc(Nc3ccc(Cl)cc3)c-2n1 | Kb (Cavia porcellus): 70.8 µM; Ki (Substance-K receptor [4]): 3.07 µM

Source: ChEMBL document CHEMBL1128090, “Substituted 2,4-diaminoquinazolines and 2,4-diamino-8-alkylpurines as antagonists of the neurokinin-2 (NK2) receptor” (Bioorg Med Chem Lett, 1995)
